Experiments:
Assay type in all cases: functional
SK-MEL-2 = assay: Growth inhibition of human SK-MEL-2 cells assessed as growth inhibition at 10 uM by sulforhodamine B assay; conditions: read-out: GI
UO-31 [1] = assay: Growth inhibition of human UO31 cells assessed as cell growth at 10^-8 M by sulforhodamine B assay; conditions: read-out: Activity
KM12 [2] = assay: Growth inhibition of human KM12 cells assessed as cell growth at 10^-8 M by sulforhodamine B assay; conditions: read-out: Activity
SNB-19 = assay: Growth inhibition of human SNB19 cells assessed as growth inhibition at 10 uM by sulforhodamine B assay; conditions: read-out: GI
DU-145 = assay: Growth inhibition of human DU145 cells assessed as cell growth at 10^-8 M by sulforhodamine B assay; conditions: read-out: Activity
[3] = Growth inhibition of human NCI-ADR-RES cells by sulforhodamine B assay
HOP-92 = assay: Growth inhibition of human HOP92 cells assessed as growth inhibition at 10 uM by sulforhodamine B assay; conditions: read-out: GI
RPMI-8226 = assay: Growth inhibition of human RPMI8226 cells assessed as cell growth at 10 uM by sulforhodamine B assay; conditions: read-out: Activity
MDA-MB-435 [4] = assay: Growth inhibition of human MDA-MB-435 cells assessed as cell growth at 10 uM by sulforhodamine B assay; conditions: read-out: Activity
MOLT-4 [5] = assay: Growth inhibition of human MOLT4 cells assessed as cell growth at 10^-6 M by sulforhodamine B assay; conditions: read-out: Activity
BT-549 = assay: Growth inhibition of human BT549 cells assessed as cell growth at 10 uM by sulforhodamine B assay; conditions: read-out: Activity
RXF 393 = assay: Growth inhibition of human RXF393 cells assessed as growth inhibition at 10 uM by sulforhodamine B assay; conditions: read-out: GI
NCI-H522 = assay: Growth inhibition of human NCI-H522 cells assessed as cell growth at 10^-6 M by sulforhodamine B assay; conditions: read-out: Activity
HCT-116 = assay: Growth inhibition of human HCT116 cells assessed as cell growth at 10 uM by sulforhodamine B assay; conditions: read-out: Activity
A549 = assay: Growth inhibition of human A549/ATCC cells assessed as growth inhibition at 10 uM by sulforhodamine B assay; conditions: read-out: GI
OVCAR-5 [6] = assay: Growth inhibition of human OVCAR5 cells assessed as cell growth at 10 uM by sulforhodamine B assay; conditions: read-out: Activity
KM12 [7] = assay: Growth inhibition of human KM12 cells assessed as cell growth at 10 uM by sulforhodamine B assay; conditions: read-out: Activity
OVCAR-8 = assay: Growth inhibition of human OVCAR8 cells assessed as cell growth at 10^-8 M by sulforhodamine B assay; conditions: read-out: Activity
OVCAR-5 [8] = assay: Growth inhibition of human OVCAR5 cells by sulforhodamine B assay
TK-10 [9] = assay: Growth inhibition of human TK10 cells by sulforhodamine B assay
NCI-H460 = assay: Growth inhibition of human NCI-H460 cells assessed as cell growth at 10^-8 M by sulforhodamine B assay; conditions: read-out: Activity
MOLT-4 [10] = assay: Growth inhibition of human MOLT4 cells assessed as cell growth at 10^-4 M by sulforhodamine B assay; conditions: read-out: Activity
NCI-H23 = assay: Growth inhibition of human NCI-H23 cells assessed as cell growth at 10^-7 M by sulforhodamine B assay; conditions: read-out: Activity
KM12 [11] = assay: Growth inhibition of human KM12 cells assessed as growth inhibition at 10 uM by sulforhodamine B assay; conditions: read-out: GI
MDA-MB-435 [12] = assay: Growth inhibition of human MDA-MB-435 cells by sulforhodamine B assay
HL-60(TB) [13] = assay: Growth inhibition of human HL-60(TB) cells assessed as cell growth at 10 uM by sulforhodamine B assay; conditions: read-out: Activity
TK-10 [14] = assay: Growth inhibition of human TK10 cells assessed as cell growth at 10 uM by sulforhodamine B assay; conditions: read-out: Activity
UO-31 [15] = assay: Growth inhibition of human UO31 cells assessed as cell growth at 10^-7 M by sulforhodamine B assay; conditions: read-out: Activity
[16] = Growth inhibition of human Hs 578T cells assessed as cell growth at 10^-6 M by sulforhodamine B assay; conditions: read-out: Activity
CCRF-CEM = assay: Growth inhibition of human CCRF-CEM cells assessed as cell growth at 10 uM by sulforhodamine B assay; conditions: read-out: Activity
SF-295 = assay: Growth inhibition of human SF295 cells by sulforhodamine B assay
LOX IMVI = assay: Growth inhibition of human LOXIMVI cells assessed as cell growth at 10 uM by sulforhodamine B assay; conditions: read-out: Activity
[17] = Growth inhibition of human EKVX cells assessed as growth inhibition at 10 uM by sulforhodamine B assay; conditions: read-out: GI
[18] = Growth inhibition of human HCC2998 cells assessed as growth inhibition at 10 uM by sulforhodamine B assay; conditions: HCC 2998, read-out: GI
SK-MEL-28 = assay: Growth inhibition of human SK-MEL-28 cells assessed as growth inhibition at 10 uM by sulforhodamine B assay; conditions: read-out: GI
HCT-15 = assay: Growth inhibition of human HCT15 cells assessed as cell growth at 10^-7 M by sulforhodamine B assay; conditions: read-out: Activity
OVCAR-3 = assay: Growth inhibition of human OVCAR3 cells assessed as growth inhibition at 10 uM by sulforhodamine B assay; conditions: read-out: GI
[19] = Growth inhibition of human EKVX cells assessed as cell growth at 10 uM by sulforhodamine B assay; conditions: read-out: Activity
PC-3 = assay: Growth inhibition of human PC3 cells assessed as cell growth at 10 uM by sulforhodamine B assay; conditions: read-out: Activity
HL-60(TB) [20] = assay: Growth inhibition of human HL-60(TB) cells by sulforhodamine B assay
NCI-H322M = assay: Growth inhibition of human NCI-H322M cells by sulforhodamine B assay
[21] = read-out: LC50 (the source's name)
[22] = read-out: pLC50 (the source's name) (converted)

## C/C=C(/C)C(=O)O[C@@H]1CC(C)(C)C[C@H]2C3=CC[C@@H]4[C@@]5(C)CCC(=O)C(C)(C)[C@@H]5CC[C@@]4(C)[C@]3(C)CC[C@@]12C(=O)O [LANTADENE A]
SK-MEL-2
  inhibition of growth at 10 µM: 22.9%
UO-31 [1]
  growth at 0.01 µM: 96%
KM12 [2]
  growth at 0.01 µM: 103%
SNB-19
  inhibition of growth at 10 µM: 40.6%
DU-145
  growth at 0.01 µM: 104%
[3]; read-out: GI50
  GI50: 5.12 µM
[3]; [21]
  CC50: > 100 µM
[3]; read-out: TGI
  TGI: > 100 µM
[3]; read-out: pGI50 (converted)
  GI50: 5.13 µM
[3]; [22]
  CC50: > 100 µM
[3]; read-out: pTGI (converted)
  TGI: > 100 µM
HOP-92
  inhibition of growth at 10 µM: 56.3%
RPMI-8226
  growth at 10 µM: 16.6%
MDA-MB-435 [4]
  growth at 10 µM: 87.8%
MOLT-4 [5]
  growth at 1 µM: 89%
BT-549
  growth at 10 µM: 44%
RXF 393
  inhibition of growth at 10 µM: 11.5%
NCI-H522
  growth at 1 µM: 94%
HCT-116
  growth at 10 µM: 34%
A549
  inhibition of growth at 10 µM: 60.8%
OVCAR-5 [6]
  growth at 10 µM: 92.4%
KM12 [7]
  growth at 10 µM: 40%
OVCAR-8
  growth at 0.01 µM: 97%
OVCAR-5 [8]; read-out: GI50
  GI50: 18.3 µM
OVCAR-5 [8]; [21]
  CC50: > 100 µM
OVCAR-5 [8]; read-out: TGI
  TGI: > 100 µM
OVCAR-5 [8]; read-out: pGI50 (converted)
  GI50: 18.2 µM
OVCAR-5 [8]; [22]
  CC50: > 100 µM
OVCAR-5 [8]; read-out: pTGI (converted)
  TGI: > 100 µM
TK-10 [9]; read-out: GI50
  GI50: 5.37 µM
TK-10 [9]; [21]
  CC50: > 100 µM
TK-10 [9]; read-out: TGI
  TGI: > 100 µM
TK-10 [9]; read-out: pGI50 (converted)
  GI50: 5.37 µM
TK-10 [9]; [22]
  CC50: > 100 µM
TK-10 [9]; read-out: pTGI (converted)
  TGI: > 100 µM
NCI-H460
  growth at 0.01 µM: 104%
MOLT-4 [10]
  growth at 100 µM: 2%
NCI-H23
  growth at 0.1 µM: 99%
KM12 [11]
  inhibition of growth at 10 µM: 60%
MDA-MB-435 [12]; read-out: GI50
  GI50: 5.24 µM
MDA-MB-435 [12]; [21]
  CC50: > 100 µM
MDA-MB-435 [12]; read-out: TGI
  TGI: > 100 µM
MDA-MB-435 [12]; read-out: pGI50 (converted)
  GI50: 5.25 µM
MDA-MB-435 [12]; [22]
  CC50: > 100 µM
MDA-MB-435 [12]; read-out: pTGI (converted)
  TGI: > 100 µM
HL-60(TB) [13]
  growth at 10 µM: -5.42%
TK-10 [14]
  growth at 10 µM: 83.3%
UO-31 [15]
  growth at 0.1 µM: 94%
[16]
  growth at 1 µM: 91%
CCRF-CEM
  growth at 10 µM: 43.6%
SF-295; read-out: GI50
  GI50: 2.77 µM
SF-295; [21]
  CC50: > 100 µM
SF-295; read-out: TGI
  TGI: 15.4 µM
SF-295; read-out: pGI50 (converted)
  GI50: 2.75 µM
SF-295; [22]
  CC50: > 100 µM
SF-295; read-out: pTGI (converted)
  TGI: 15.5 µM
LOX IMVI
  growth at 10 µM: 61.8%
[17]
  inhibition of growth at 10 µM: 50.7%
[18]
  inhibition of growth at 10 µM: 38.6%
SK-MEL-28
  inhibition of growth at 10 µM: 17.3%
HCT-15
  growth at 0.1 µM: 106%
OVCAR-3
  inhibition of growth at 10 µM: 37.4%
[19]
  growth at 10 µM: 49.3%
PC-3
  growth at 10 µM: 37.2%
HL-60(TB) [20]; read-out: GI50
  GI50: 1.87 µM
HL-60(TB) [20]; [21]
  CC50: > 100 µM
HL-60(TB) [20]; read-out: TGI
  TGI: 5.26 µM
HL-60(TB) [20]; read-out: pGI50 (converted)
  GI50: 1.86 µM
HL-60(TB) [20]; [22]
  CC50: > 100 µM
HL-60(TB) [20]; read-out: pTGI (converted)
  TGI: 5.25 µM
NCI-H322M; read-out: GI50
  GI50: 3.94 µM
NCI-H322M; read-out: LC50
  LC50 (50% lethal concentration): > 100 µM
NCI-H322M; read-out: TGI
  TGI: > 100 µM
NCI-H322M; read-out: pGI50 (converted)
  GI50: 3.98 µM
NCI-H322M; read-out: pLC50 (converted)
  LC50 (50% lethal concentration): > 100 µM
NCI-H322M; read-out: pTGI (converted)
  TGI: > 100 µM

Reference: ChEMBL document CHEMBL2413072, “Synthesis and in vitro anticancer studies of novel C-2 arylidene congeners of lantadenes” (2013)
